Reference: US8445028B2, “Echinoderm-derived extracts, methods of preparation and uses thereof” (Rival, S.E.C., priority 2008, dated 2013)

test: Oxygen Radical Absorption Capacity (ORAC) assay, fluorescein/AAPH, Trolox equivalents; type: biochemical; conditions: pure antioxidants, analyses performed in the present studies; Table IV
Excerpt: The Oxygen Radical Absorption Capacity (ORAC) assay is commonly used to measure the antioxidative capacity of various antioxidants. The ORAC assay provides an effective measure of antioxidant protection afforded to physiologically important biomolecules such as proteins. ORAC assays that may be used in the present invention include, for example, those described in U.S. Pat. No. 6,060,324, Methods in Enzymology (1999) 299: 50-62 (Cao and Prior), and Ou et al., 2001. J. Agric. Food Chem. 49: 4619-4626. […] Unless otherwise stated, the ORAC values are expressed as a TroloxTM equivalent value per gram of extract. Antioxidant properties of extracts were estimated using the Oxygen Radical Absorption Capacity (ORAC) method. The analytical procedure has been adapted from a published method (Ou et al., 2001. J. Agric. Food Chem. 49: 4619-4626), using 96-well microplates and a […] spectrofluorometer (Molecular Devices Corporation, Sunnyvale, Calif., USA). After appropriate dilution (typically between 1/100 to 1/1000), a 30-μl aliquot of the extract was added to each well in which 150 μl of 1.04 μM fluorescein and 30 μl of 162 mM 2,2'-azobis (2-amidinopropane) hydrochloride (AAPH) were previously added. TroloxTM (6-hydroxy-2,5,7,8-tetramethylchroman-2-carboxylic acid), a water soluble analog of vitamin E, was used as positive control, and phosphate buffer pH 7.4 was used as the analytical blank. The reactive mixture was incubated at 37.5° C. for 90 min. Final results were calculated as a function of the difference between the surface under the curves between blanks and extracts, and the antioxidant properties expressed as ORAC values in equivalent micromolar of TroloxTM by dry weight of the sample (μmol TE/g extract).

In order of falling ORAC values:
1. Catechin  16601 μmol TE/g dry extract
2. Cc1c(C)c2c(c(C)c1O)CC[C@@](C)(CCC[C@H](C)CCC[C@H](C)CCCC(C)C)O2 [α-Tocopherol]  5657 μmol TE/g dry extract
3. CC1=C(/C=C/C(C)=C/C=C/C(C)=C/C=C/C=C(C)/C=C/C=C(C)/C=C/C2=C(C)CCCC2(C)C)C(C)(C)CCC1 [β-carotene]  3183 μmol TE/g dry extract
